Our source for the Peptide exchange values is patent publication US11541107B2, “Peptides and T cells for use in immunotherapeutic treatment of various cancers” (Immatics Biotechnologies GmbH, priority 2015, dated 2023).

The test system of the assay is HLA-A*24. In words: MHC binding assay, UV-ligand exchange with beta2m ELISA, HLA-A*24. Further details: species or system human. The note with it: binding to HLA-A*24 ranged by peptide exchange yield (UV-ligand exchange, beta2m ELISA). The text has this: Candidate peptides for T cell based therapies according to the present invention were further tested for their MHC binding capacity (affinity). The individual peptide-MHC complexes were produced by UV-ligand exchange, where a UV-sensitive peptide is cleaved upon UV-irradiation, and exchanged with the peptide of interest as analyzed. Only peptide candidates that can effectively bind and stabilize the peptide-receptive MHC molecules prevent dissociation of the MHC complexes. To determine the yield of the exchange reaction, an ELISA was performed based on the detection of the light chain (ß2 m) of stabilized MHC complexes. The assay was performed as generally described in Rodenko et al. (Rodenko et al., 2006).
96 well MAXISorp plates (NUNC) were coated over night with 2 ug/ml streptavidin in PBS at room temperature, washed 4× and blocked for 1 h at 37° C. in 2% BSA containing blocking buffer. […] Peptide-MHC monomers of the UV-exchange reaction were diluted 100 fold in blocking buffer. Samples were incubated for 1 h at 37° C., washed four times, incubated with 2 ug/ml HRP conjugated anti-β2 m for 1h at 37° C., washed again and detected with TMB solution that is stopped with […]. Absorption was measured at 450 nm. Candidate peptides that show a high exchange yield (preferably higher than 50%, most preferred higher than 75%) are generally preferred for a generation and production of antibodies or fragments thereof, and/or T cell receptors or fragments thereof, as they show sufficient avidity to the MHC molecules and prevent dissociation of the MHC complexes.

For “311 (EYLQNLNHI; listed as Homo sapiens) [compound 311]”, the Peptide exchange entry is listed as “++++ (>=75% = ++++)”.
Turning to “244 (VHFEDTGKTLLF; listed as Homo sapiens) [compound 244]”, the Peptide exchange entry is given as “+++ (50%-75% = +++)”.
With “274 (KQLDIANYELF; listed as Homo sapiens) [compound 274]” the entry was “++++ (>=75% = ++++)”; with “212 (SYAPPSEDLF; listed as Homo sapiens) [compound 212]”, “++ (20%-49% = ++)”; with “214 (KYLMELTLI; listed as Homo sapiens) [compound 214]”, “+++ (50%-75% = +++)”.
With “364 (KYLNENQLSQL; listed as Homo sapiens) [compound 364]” the entry was “+++ (50%-75% = +++)”; with “178 (NYSSAVQKF; listed as Homo sapiens) [compound 178]”, “+++ (50%-75% = +++)”; with “217 (IYISNSIYF; listed as Homo sapiens) [compound 217]”, “++++ (>=75% = ++++)”.
With “349 (QYSIISNVF; listed as Homo sapiens) [compound 349]” the entry was “+++ (50%-75% = +++)”.
Regarding “303 (LYSVIKEDF; listed as Homo sapiens) [compound 303]”, the Peptide exchange result is recorded as “+++ (50%-75% = +++)”.
Consider “377 (QYTPHSHQF; listed as Homo sapiens) [compound 377]”, for which the Peptide exchange entry was “+++ (50%-75% = +++)”.
Then “176 (FYINGQYQF; listed as Homo sapiens) [compound 176]”, with “+++ (50%-75% = +++)”.
Then “219 (SYLKAVFNL; listed as Homo sapiens) [compound 219]”, with “+++ (50%-75% = +++)”.
Then “213 (SYAPPSEDLFL; listed as Homo sapiens) [compound 213]”, with “++ (20%-49% = ++)”.
“360 (VFSPDGHLF; listed as Homo sapiens) [compound 360]”: the Peptide exchange entry was “+++ (50%-75% = +++)”.
With “215 (SYVASFFLL; listed as Homo sapiens) [compound 215]” the entry was “++ (20%-49% = ++)”; with “302 (LYLPVHYGF; listed as Homo sapiens) [compound 302]”, “+++ (50%-75% = +++)”; with “269 (QYPYLQAFF; listed as Homo sapiens) [compound 269]”, “+++ (50%-75% = +++)”.
With “165 (EYFTPLLSGQF; listed as Homo sapiens) [compound 165]” the entry was “+++ (50%-75% = +++)”; with “250 (KYPDIASPTF; listed as Homo sapiens) [compound 250]”, “++ (20%-49% = ++)”.
Turning to “241 (SYVKVLHHL; listed as Homo sapiens) [compound 241]”, the Peptide exchange entry is “+++ (50%-75% = +++)”.
With “368 (KYQNVKHNL; listed as Homo sapiens) [compound 368]” the entry was “+++ (50%-75% = +++)”; with “272 (RYVFPLPYL; listed as Homo sapiens) [compound 272]”, “++++ (>=75% = ++++)”; with “265 (SYLNEAFSF; listed as Homo sapiens) [compound 265]”, “++++ (>=75% = ++++)”.
With “197 (IFTDIFHYL; listed as Homo sapiens) [compound 197]” the entry was “++++ (>=75% = ++++)”.
For “307 (GYAFTLPLF; listed as Homo sapiens) [compound 307]”, the Peptide exchange result was “+++ (50%-75% = +++)”.
Turning to “116 (AYVIAVHLF; listed as Homo sapiens) [compound 116]”, the Peptide exchange result is recorded as “++++ (>=75% = ++++)”.
Turning to “388 (IYGEKTYAF; listed as Homo sapiens) [compound 388]”, the Peptide exchange entry was “+++ (50%-75% = +++)”.
For the substance “114 (QYLDGTWSL; listed as Homo sapiens) [compound 114]”, the Peptide exchange result is listed as “++++ (>=75% = ++++)”.
With “315 (FYIPHVPVSF; listed as Homo sapiens) [compound 315]” the entry was “+++ (50%-75% = +++)”; with “273 (IYGEKLQFIF; listed as Homo sapiens) [compound 273]”, “+++ (50%-75% = +++)”; with “119 (VYRVYVTTF; listed as Homo sapiens) [compound 119]”, “+++ (50%-75% = +++)”.
With “383 (RYKPGEPITF; listed as Homo sapiens) [compound 383]” the entry was “+++ (50%-75% = +++)”; with “243 (SYLELANTL; listed as Homo sapiens) [compound 243]”, “+++ (50%-75% = +++)”; with “297 (TYIDTRTVF; listed as Homo sapiens) [compound 297]”, “++++ (>=75% = ++++)”.
With “267 (SFLNIEKTEILF; listed as Homo sapiens) [compound 267]” the entry was “++ (20%-49% = ++)”; with “131 (EYLDRIGQLFF; listed as Homo sapiens) [compound 131]”, “+++ (50%-75% = +++)”.
For the substance “242 (VYGEPRELL; listed as Homo sapiens) [compound 242]”, the Peptide exchange result was “+++ (50%-75% = +++)”.
Then “341 (SYLTQHQRI; listed as Homo sapiens) [compound 341]”, with “+++ (50%-75% = +++)”; and “195 (AYIKGGWIL; listed as Homo sapiens) [compound 195]”, with “+++ (50%-75% = +++)”; and “255 (VYQKIILKF; listed as Homo sapiens) [compound 255]”, with “+++ (50%-75% = +++)”.
Then “306 (VYPAEQPQI; listed as Homo sapiens) [compound 306]”, with “+++ (50%-75% = +++)”; and “318 (TYSNSAFQYF; listed as Homo sapiens) [compound 318]”, with “+++ (50%-75% = +++)”.
Then “145 (VYALKVRTI; listed as Homo sapiens) [compound 145]”, with “+++ (50%-75% = +++)”; and “264 (LYTETRLQF; listed as Homo sapiens) [compound 264]”, with “++++ (>=75% = ++++)”.
Take “188 (GYKTFFNEF; listed as Homo sapiens) [compound 188]”: the Peptide exchange entry is on record as “+++ (50%-75% = +++)”.
Then “284 (DYLKDPVTI; listed as Homo sapiens) [compound 284]”, with “+++ (50%-75% = +++)”; and “366 (QYLELAHSL; listed as Homo sapiens) [compound 366]”, with “+++ (50%-75% = +++)”.
Then “135 (VYEAMVPLF; listed as Homo sapiens) [compound 135]”, with “++++ (>=75% = ++++)”; and “301 (KFDDVTMLF; listed as Homo sapiens) [compound 301]”, with “++++ (>=75% = ++++)”.
Then “362 (VYNYAEQTL; listed as Homo sapiens) [compound 362]”, with “++ (20%-49% = ++)”.
Turning to “184 (IYSVGAFENF; listed as Homo sapiens) [compound 184]”, the Peptide exchange result is “++++ (>=75% = ++++)”.
With “102 (VYPFENFEF; listed as Homo sapiens) [compound 102]” the entry was “+++ (50%-75% = +++)”; with “148 (SYGTVSQIF; listed as Homo sapiens) [compound 148]”, “++++ (>=75% = ++++)”.
Then “149 (SYGTVSQI; listed as Homo sapiens) [compound 149]”, with “++++ (>=75% = ++++)”; and “196 (GYIRGSWQF; listed as Homo sapiens) [compound 196]”, with “++++ (>=75% = ++++)”; and “240 (YYFFVQEKI; listed as Homo sapiens) [compound 240]”, with “+++ (50%-75% = +++)”.
Then “256 (VFGKSAYLF; listed as Homo sapiens) [compound 256]”, with “+++ (50%-75% = +++)”; and “122 (EYQARIPEF; listed as Homo sapiens) [compound 122]”, with “+++ (50%-75% = +++)”.
On to “198 (DYVGFTLKI; listed as Homo sapiens) [compound 198]”, for which the Peptide exchange entry is reported as “++ (20%-49% = ++)”.
Then “141 (SYNGHLTIWF; listed as Homo sapiens) [compound 141]”, with “+++ (50%-75% = +++)”; and “351 (IFHEVPLKF; listed as Homo sapiens) [compound 351]”, with “+++ (50%-75% = +++)”; and “310 (IYAPTLLVF; listed as Homo sapiens) [compound 310]”, with “+++ (50%-75% = +++)”.
Then “381 (KYPASSSVF; listed as Homo sapiens) [compound 381]”, with “+++ (50%-75% = +++)”; and “251 (VYTKALSSL; listed as Homo sapiens) [compound 251]”, with “+++ (50%-75% = +++)”.
For the substance “228 (IYQYVADNF; listed as Homo sapiens) [compound 228]”, the Peptide exchange entry is on record as “+++ (50%-75% = +++)”.
